Source: publication PMC4472604 (ACS chemical neuroscience, 2015)

Key:
[1] = molecular target: T1, DOR (Mus musculus, UniProt P32300); experiment: Competition binding against [125I]-3
[2] = molecular target: MOR (Mus musculus, UniProt P42866); experiment: Competition binding against [125I]BNtxA in MOR-CHO membranes
[3] = molecular target: KOR (Mus musculus, UniProt P33534); experiment: Competition binding against [125I]BNtxA in KOR-CHO membranes
[4] = molecular target: 6TM/E11 sites (Mus musculus, UniProt P42866); assay type: binding
[5] = molecular target: T1, DOR; experiment: [125I]-3 saturation binding in DOR-CHO membranes; details: mean ± SEM

Work on `Oc1ccc2c3c1O[C@H]1c4oc5ccccc5c4C[C@@]4(O)[C@@H](C2)N(CC2CC2)CC[C@]314` [Naltriben] yielded a Ki [1] of 0.14 ± 0.04 nM.

`Oc1ccc2c3c1O[C@H]1c4[nH]c5ccccc5c4C[C@@]4(O)[C@@H](C2)N(CC2CC2)CC[C@]314` [Naltrindole] gave a Ki [1] of 0.79 ± 0.16 nM.

With `CC(C)[C@H](NC(=O)[C@H](CCC(=O)O)NC(=O)[C@H](Cc1ccccc1)NC(=O)[C@@H](C)NC(=O)[C@@H](N)Cc1ccc(O)cc1)C(=O)N[C@H](C(=O)NCC(N)=O)C(C)C` [[D-Ala^2]deltorphin II, Tyr-D-Ala-Phe-Glu-Val-Val-Gly-NH2] the Ki [2] was greater than 1000 nM, the Ki [3] was greater than 1000 nM and the Ki [4] was greater than 1000 nM.

In the case of “Tyr-D-Ala-(p-^125I)Phe-Glu-Ile-Ile-Gly-NH2 [[^125I]-3]”, the Bmax [5] is reported as 196.97 ± 12.44 fmol/mg.
